The test system of series [1] is HUVEC cells. The series is described as follows: VEGF-induced HUVEC proliferation/viability assay (WST1). The conditions noted are these: starvation medium EGM-2EV. The format is cell-based, human. How it is done: Single donor HUVEC cells were purchased from Lonza (Breda, Netherlands). Cells were seeded at 5,000 cells per well in 96-well microtiterplates in EGM-2EV medium (Invitrogen). Upon adherence the cells were gently washed twice with PBS and starved overnight in EGM-2EV medium with reduced FBS content (0.1%; starvation medium).
After 96 hrs, cell growth was quantified using the WST1 Rapid cell proliferation kit (Calbiochem), and was expressed in percentage of the control value (VEGF alone). Experiments were carried out in triplets.
To further evaluate the anti-angiogenic potential of the present novel compounds, proliferation and survival of human umbilical vein endothelial cells (HUVECs) treated with VEGF and two compounds that were very active in the zebrafish model were assayed.

For series [2], the target named is P-glycoprotein (P-gp) (Homo sapiens, UniProt P08183).
Protocol: The intracellular accumulation of calcein inside the cells is measured by using FACS analysis. The points indicate mean values of fluorescent effect, vertical lines show standard error calculated on the base of two independent experiment replicates. The effect corresponds to a control of cells which were treated only with calcein.
Test compounds were dissolved in DMSO as stock solutions and further dilutions were made with DMEM/HAM's F12 1:1 (Biochrom). […] A range of concentrations of test compound in a volume of 300-600 μL cell suspension were added, followed by a 15 min incubation at 37° C. Calcein-AM (300 μL) (MoBiTec, Göttingen, Germany) in DMEM/HAM's F12 1:1 was added to a final concentration of 1 μM and incubated for 30 min at 37° C.
For the calcein-AM assay using flow cytometry, the cell density of suspensions in DMEM/Ham's F12 1:1 was 2.5×10^7 cells/ml.
Gating on forward and side scatter in concert with propidium iodide staining allowed distinguishing live endothelial cells.
Twenty thousand cells were sorted in each run, and data were processed and analyzed with CellQuest (Franklin Lakes, N.J., USA). All fluorescence signals were corrected for background fluorescence. Calcein-AM auto-hydrolysis was measured in control samples (n=6) without cells.
Series [3] deals with zebrafish embryos. The experiment in a line: Tg(fli1:EGFP) zebrafish embryo in vivo angiogenesis assay. As for the experimental part: Tg(fli1:EGFP) zebrafish, which express enhanced green fluorescent protein (GFP) in their endothelial cells, were used as an in vivo model for angiogenesis. At 20 hours post-fertilization (hpf), zebrafish embryos (10 per well/condition) were bathed in fish media, containing a concentration range of each of the compounds or control. Compounds had been dissolved as stock solutions in DMSO, stored at room temperature, and serially diluted in fish media prior to use. The anti-angiogenic tyrosinase kinase inhibitor SU5416 (Pfizer), and a vehicle-alone control containing the maximum concentration of DMSO were used as controls in all experiments.
In the first sets of experiments, a broad range of concentrations were used to identify the maximum tolerable dose, based on toxicity to the embryos, visualized directly by light microscopy. Subsequent experiments were performed a minimum of two times. Live analyses of the embryos were performed under light and fluorescence microscopy at 28 hpf and 48 hpf to monitor viability, overall morphology, and pattern of swimming. Angiogenesis was evaluated visually by fluorescence microscopy.
The developmental growth and patterning of the dorsal aorta, posterior cardinal vein, intersomitic vessels (ISV), and vascular plexus (VP) were monitored, as was the heart rate, and blood flow.
Eight compounds (4, 7, 8, 9, 10, 11, 12 and 15) were compared to artesunate for their anti-angiogenic potential using an in vivo zebrafish embryo model system (Table III blow). DMSO at concentrations of 0.5, 1, and 2% was used as vehicle control. No effects were observed on overall morphology, heart rate, blood flow, or angiogenesis in control embryos. The anti-angiogenic agent SU5416 was used as a positive control.

Chain of P-glycoprotein (P-gp) (P08183 whole entry): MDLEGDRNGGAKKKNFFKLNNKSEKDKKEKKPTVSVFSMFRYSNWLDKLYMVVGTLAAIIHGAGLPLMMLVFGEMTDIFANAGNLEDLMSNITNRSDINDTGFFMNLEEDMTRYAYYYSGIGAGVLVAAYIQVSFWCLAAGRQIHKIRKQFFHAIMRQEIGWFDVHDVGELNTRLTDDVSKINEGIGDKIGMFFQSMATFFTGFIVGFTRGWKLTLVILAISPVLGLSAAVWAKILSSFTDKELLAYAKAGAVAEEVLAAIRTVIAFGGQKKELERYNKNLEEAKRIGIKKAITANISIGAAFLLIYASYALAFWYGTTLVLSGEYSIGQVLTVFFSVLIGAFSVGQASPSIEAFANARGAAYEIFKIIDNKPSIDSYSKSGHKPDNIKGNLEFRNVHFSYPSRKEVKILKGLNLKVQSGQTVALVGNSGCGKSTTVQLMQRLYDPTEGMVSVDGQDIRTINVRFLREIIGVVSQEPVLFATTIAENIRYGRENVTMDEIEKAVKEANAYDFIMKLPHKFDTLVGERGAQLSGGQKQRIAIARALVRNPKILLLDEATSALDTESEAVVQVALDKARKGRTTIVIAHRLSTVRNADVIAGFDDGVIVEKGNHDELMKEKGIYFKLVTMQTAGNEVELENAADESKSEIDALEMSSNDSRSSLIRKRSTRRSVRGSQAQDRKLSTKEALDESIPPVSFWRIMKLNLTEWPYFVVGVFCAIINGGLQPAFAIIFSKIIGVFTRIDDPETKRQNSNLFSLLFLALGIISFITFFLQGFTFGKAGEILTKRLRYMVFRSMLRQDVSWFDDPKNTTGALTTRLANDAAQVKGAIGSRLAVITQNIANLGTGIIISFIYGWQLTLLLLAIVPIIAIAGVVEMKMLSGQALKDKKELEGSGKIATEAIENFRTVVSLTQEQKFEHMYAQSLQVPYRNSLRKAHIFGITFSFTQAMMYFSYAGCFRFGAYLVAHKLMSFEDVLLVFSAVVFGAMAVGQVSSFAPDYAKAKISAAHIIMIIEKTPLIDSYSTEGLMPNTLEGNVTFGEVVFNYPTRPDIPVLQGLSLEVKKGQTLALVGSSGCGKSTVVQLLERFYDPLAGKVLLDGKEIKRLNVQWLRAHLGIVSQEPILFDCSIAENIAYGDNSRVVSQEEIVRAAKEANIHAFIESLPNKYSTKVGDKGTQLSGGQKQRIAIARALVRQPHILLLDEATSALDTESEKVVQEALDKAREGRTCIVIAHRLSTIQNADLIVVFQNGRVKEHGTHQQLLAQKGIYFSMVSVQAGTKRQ

On to `C[C@H]1[C@H](OC(=O)CCC(=O)O)O[C@@H]2O[C@@]3(C)CC[C@H]4[C@H](C)CC[C@@H]1[C@@]24OO3` [Artesunate, artesunate, reference compound], for which the “Behaviour in cell culture medium” value in series [1] is given as “precipitation from the cell culture medium”. In series [2], the “P-gp inhibition judged by calcein fluorescence” value was “do not act as P-gp inhibitors”. Further, the “Dead = number of dead embryos up to 48 hpf” value in series [3] (25 μg/ml, N = 20 embryos) is 1; in series [3] (50 μg/ml, N = 20 embryos), 1; in series [3] (100 μg/ml, N = 20 embryos), 1; in series [3] (200 μg/ml, N = 10 embryos), 1. The “Vasc. Defects = number of surviving embryos with vascular defects” value worked out at 0 in series [3] (25 μg/ml, N = 20 embryos); 2 in series [3] (50 μg/ml, N = 20 embryos); 6 in series [3] (100 μg/ml, N = 20 embryos); 9 in series [3] (200 μg/ml, N = 10 embryos). In addition, the “Anti-angiogenic effect (in words)” value in series [3] (zebrafish embryos, concentration range) is listed as “dose-dependent anti-angiogenic effects”.
